Values after ≈ are worked out from the molar mass of the structure shown. Read-outs that look alike come from different tables or passages of the source.
Columns and labels:
MSSA ATCC 29213 = experiment: MIC/MBC determination in LB broth, MSSA; type: cell-based, Staphylococcus aureus; settings: MSSA ATCC 29213
Experimental: (§1) Normal human lung fibroblasts (MRC-5) were grown in Dulbecco’s modified Eagle’s medium (DMEM) supplemented with 10% calf serum, 100 U/mL penicillin and […] streptomycin in an incubator at 5% CO2 atmosphere and 37 °C. The Gram-positive Staphylococcus aureus (methicillin-sensitive, MSSA ATCC 29213, and methicillin-resistant, MRSA ATCC 43300) and the Gram-negative Escherichia coli (ESBL, extended-spectrum beta-lactamase-positive) bacterial cells were grown in Luria-Bertani broth (LB) at 37 °C under constant shaking at 300 rpm.
(§2) The antibacterial activity was tested on both a methicillin-sensitive and a methicillin-resistant S. aureus strain, and an ESBL E. coli clinical isolate. All the compounds were dissolved at the final concentration of 20 mg/mL in dimethyl sulfoxide (DMSO) and serially diluted in LB. Fresh cell cultures were used at 10^5 cells/mL in a final volume of 2 mL. Each bacterial sample was grown with different compound concentrations that ranged from 100 to 0.1 μg/mL. […] To determine the MBC, the bacteria were then washed three times with LB, centrifuged at 900× g for 10 min at 4 °C, and the pellet resuspended in fresh LB. After overnight incubation at 37 °C, the absence of growth was confirmed by OD measurement. The presence of antibacterial activity, at any concentration tested, was established for values of absorbance < 0.1 OD600. All tests were performed in quadruplicate and for each series of experiments, both positive (no compounds) and negative (no bacteria) controls were included.

E. coli N43 [1] = experiment: Broth microdilution MIC, efflux-defective E. coli N43; type: cell-based, Escherichia coli
Experimental: (§3) We thus tested 1–8 and III initially on the reference sensitive E. coli ATCC 25922 and on the extended-spectrum of beta-lactamase-positive (ESBL) E. coli, as Gram-negative bacteria. Moreover, in order to evaluate the susceptibility of this series of compounds to the efflux pump AcrAB, we employed also the above-mentioned E. coli N43, which is the knockout of the AcrAB cell membrane pump.
(§4) Antibacterial activities of compounds were determined by the broth microdilution method against MDRSA 11.7, MDRSA 12.1 and E. coli N43 following the European Committee on Antimicrobial Susceptibility Testing (EUCAST) recommendations and Clinical and Laboratory Standards Institute (CLSI) guidelines. Strains MDRSA ST-11.7 and ST-12.1 were obtained through the interlaboratory control organized by the EU Reference Laboratory—Antimicrobial Resistance. Only data on their resistance to antibiotics are known, but other data are not available.
(§5) Bacterial suspension of specific bacterial strain equivalent to 0.5 McFarland turbidity standard was diluted with cation-adjusted Mueller Hinton broth with TES (Thermo Fisher Scientific), to obtain a final inoculum of 10^5 CFU/mL. Compounds dissolved in DMSO and inoculum were mixed together and incubated for 20 h at 37 °C. After incubation, the minimal inhibitory concentration (MIC) values were determined by visual inspection as the lowest dilution of compounds showing no turbidity. Tetracycline was used as a positive control on every assay plate.

MRC-5 cells = experiment: MTT cytotoxicity assay; type: cell-based, human; settings: MRC-5, concentration reducing cell viability by 90%, 24-h incubation
Experimental: The compounds showing the most promising activities vs. MRSA were also assessed for their cytotoxicity on human MRC-5 cells. TD90, the concentration (µg/mL) able to reduce by 90% the viability of these cells, was determined together with the therapeutic index (TI), expressed as the ratio between TD90 and MBC values.
as §1
Compounds showing an antibacterial activity at a concentration lower than 10 μg/mL were serially diluted in DMEM and tested on MRC-5 cells by the MTT cytotoxicity assay (Sigma, St Louis, MO, USA). Cells (10^4 cells/well) were tested in a 96-well plate, in quadruplicate, using serially two-fold-diluted concentrations of the compound in 100 μL DMEM medium. After a 24-h incubation, the compound was removed, and the cells were overlaid with 1 mg/mL MTT in 100 μL serum-free DMEM for 3 h at 37 °C. The MTT solution was then replaced with DMSO for 10 min, and the absorbance was measured at 570 nm. The percentage of cytotoxicity was calculated by the formula [100 − (sample OD/untreated cells OD) × 100]. The compound concentration reducing cell viability by 90% was defined as the TD90 cytotoxic dose. The “therapeutic index” (TI) was also determined and defined as the ratio between TD90 and the MBC values.

E. coli ATCC 25922 [2] = experiment: MIC on reference sensitive E. coli; type: cell-based, Escherichia coli
Source text: as §3

MDRSA 12.1 = experiment: Broth microdilution MIC, MDRSA 12.1; type: cell-based, Staphylococcus aureus
Experimental: (§6) Antimicrobial activity of 1–8 was evaluated on both Gram-positive (Table 3) and Gram-negative (Table 4) species. As a continuation of our previous studies, considering the Gram-positive S. aureus, we chose a methicillin-sensitive S. aureus (MSSA, ATCC 29213), a methicillin-resistant S. aureus (MRSA, ATCC 43300) and two clinical isolates of S. aureus showing multi-drug resistance (MDRSA).
as §4, §5

ESBL E. coli [3] = experiment: MIC in LB broth, ESBL E. coli clinical isolate; type: cell-based, Escherichia coli
Experimental: as §3, §1, §2

MRSA ATCC 43300 = experiment: MIC/MBC determination in LB broth, MRSA; type: cell-based, Staphylococcus aureus
Experimental: as §1, §2

MDRSA 11.7 = experiment: Broth microdilution MIC, MDRSA 11.7; type: cell-based, Staphylococcus aureus
Experimental: as §6, §4, §5

E. coli N43 [4] = test system: E. coli N43; parameters: method as in PMID 31750973; settings: E. coli N43 (AcrAB knockout); in-house reference compounds ref 12; cited from earlier work
Sa cells = test system: Sa cells; parameters: method as in PMID 31750973; settings: Sa cells incubated with the compounds ref 12; cited from earlier work
ESBL E. coli [5] = test system: ESBL E. coli; parameters: method as in PMID 31750973; settings: in-house reference compounds ref 12; cited from earlier work
E. coli AcrAB– = settings: ref 10 (Z2, Z3), 11 (TXY436), 12 (I, II); cited from earlier work
E. coli ATCC 25922 [6] = test system: E. coli ATCC 25922; parameters: method as in PMID 31750973; settings: in-house reference compounds ref 12; cited from earlier work
[7] = test system: Methicillin Sensitive S. aureus; settings: Methicillin Sensitive S. aureus; ref 10 (Z2, Z3), 11 (TXY436), 12 (I, II); cited from earlier work
S. aureus ATCC 43300 = experiment: Transmission electron microscopy of septum formation; type: cell-based, Staphylococcus aureus; settings: MRSA cultured overnight; 1 at 1 μg/mL, DFNB at 0.25 μg/mL
Source text: After having assessed the antimicrobial profile of this class of derivatives, we chose 1 to be further analyzed by transmission electron microscopy (TEM), in order to evaluate any morphological changes in septum formation, as done before as a simple FtsZ target validation assay. We cultured S. aureus ATCC 43300 alone or in the presence of 1 and 2,6-difluorononyloxybenzamide (DFNB) as a reference FtsZ inhibitor (positive control). […] These are the typical effects of the inhibition of FtsZ assembly and consequently of the block of bacterial cell division.
S. aureus ATCC 43300 (10^9 cells/mL) were cultured in the presence of 1 and DFNB (positive control), at the same concentrations used for optical microscopy and, after 16 h incubation at 37 °C, the cells were harvested and processed for transmission electron microscopy, as already described. Untreated S. aureus was used as negative control. After centrifugation at 3100× g for 5 min at room temperature, pelleted bacteria were fixed in 2.5% glutaraldehyde (Polysciences, Warrington, PA) in 0.1 M Na cacodylate buffer, pH 7.4, for 1 h at 4 °C, rinsed twice and post-fixed in Na cacodylate-buffered 1% OsO4 for 1 h at 4 °C. The samples were dehydrated through a series of graded ethanol solutions and propylene oxide and embedded in Poly/Bed 812 resin mixture. […]

[8] = Staphylococcus aureus, read-out: MBC
[9] = Staphylococcus aureus, read-out: MIC
[10] = Escherichia coli, read-out: MIC

With “3-(1,4-benzoxathiane-3-yl)-2,6-difluorobenzamide [Compound 3]” the MBC (MSSA ATCC 29213) was 20 µg/mL, the MBC/MIC (MSSA ATCC 29213) was 1 and the MIC (MSSA ATCC 29213) was 20 µg/mL. It also gave an MIC (E. coli N43 [1]; E. coli N43 (AcrAB knockout)) of 128 µg/mL, a TD90 (MRC-5 cells) of 200 µg/mL and an MIC (E. coli ATCC 25922 [2]; E. coli ATCC 25922) greater than 100 µg/mL. It also gave an MIC (MDRSA 12.1) of 32 µg/mL, an MIC (ESBL E. coli [3]) greater than 100 µg/mL and an MBC (MRSA ATCC 43300) of 20 µg/mL. The MBC/MIC (MRSA ATCC 43300) was 1, the MIC (MRSA ATCC 43300) was 20 µg/mL and the MIC (MDRSA 11.7) was 32 µg/mL.
Compound `NC(=O)c1c(F)ccc(OCCC2CSc3ccccc3O2)c1F` (centres unmarked) [Compound 6] has an MBC/MIC (MSSA ATCC 29213) of 2, an MBC (MSSA ATCC 29213; [8]) of 5 µg/mL (≈ 14.2 µM) and an MIC (MSSA ATCC 29213; [9]) of 2.5 µg/mL (≈ 7.11 µM). For the same compound, the MIC (E. coli N43 [1]; Escherichia coli, N43) was greater than 128 µg/mL, the MIC (E. coli ATCC 25922 [2]; Escherichia coli, ATCC25922) was greater than 100 µg/mL and the MIC (MDRSA 12.1; [9]) was 4 µg/mL (≈ 11.4 µM). It also gave an MIC (ESBL E. coli [3]; [10]) greater than 100 µg/mL, an MBC/MIC (MRSA ATCC 43300) of 2 and an MBC (MRSA ATCC 43300; [8]) of 5 µg/mL (≈ 14.2 µM). It also gave an MIC (MRSA ATCC 43300; [9]) of 2.5 µg/mL (≈ 7.11 µM) and an MIC (MDRSA 11.7; [9]) of 8 µg/mL (≈ 22.8 µM).
For `CSc1nc(-c2ccc3c(c2)OC(COc2ccc(F)c(C(N)=O)c2F)CO3)no1` (centres unmarked) [I], the MIC (E. coli N43 [4]) is given as 16 µg/mL (≈ 36.7 µM), the “Morphometric analysis by TEM” value (Sa cells) is given as “significant elongation in cellular dimension, bacterial swelling and cell desegregation” and the MIC (ESBL E. coli [5]) is given as greater than 100 µg/mL. The MIC (E. coli AcrAB–) was 16 µg/mL (≈ 36.7 µM), the MIC (E. coli ATCC 25922 [6]) was greater than 100 µg/mL and the MIC [7] was 0.6 µg/mL (≈ 1.38 µM).
Compound `NC(=O)c1c(F)ccc(OCC2CS(=O)(=O)c3ccccc3O2)c1F` (centres unmarked) [Compound 2] has an MBC (MSSA ATCC 29213; [8]) greater than 100 µg/mL, an MIC (MSSA ATCC 29213; [9]) greater than 100 µg/mL and an MIC (E. coli ATCC 25922 [2]; Escherichia coli, ATCC25922) greater than 100 µg/mL. It also gave an MIC (ESBL E. coli [3]; [10]) greater than 100 µg/mL, an MBC (MRSA ATCC 43300; [8]) greater than 100 µg/mL and an MIC (MRSA ATCC 43300; [9]) greater than 100 µg/mL.
For `CCCCCCCCCOc1ccc(F)c(C(N)=O)c1F` [DFNB, 2,6-difluorononyloxybenzamide, reference compound], the “Morphological changes in septum formation (TEM)” value (S. aureus ATCC 43300) was “strong alterations in the septum formation and bacterial desegregation”.
In the case of `CCN(CC)CCNc1nc(/C=C/c2ccc(Cl)cc2)nc2cc3ccccc3cc12` [Compound Z3], the MIC (E. coli AcrAB–) is given as 4 µg/mL (≈ 9.28 µM) and the MIC [7] is given as 2.1 µg/mL (≈ 4.87 µM).
With `NC(=O)c1c(F)ccc(OCCC2COc3ccccc3O2)c1F` (centres unmarked) [Compound 7] the MBC/MIC (MSSA ATCC 29213) was 1, the MBC (MSSA ATCC 29213; [8]) was 5 µg/mL (≈ 14.9 µM) and the MIC (MSSA ATCC 29213; [9]) was 5 µg/mL (≈ 14.9 µM). For the same compound, the MIC (E. coli N43 [1]; Escherichia coli, N43) was 8 µg/mL (≈ 23.9 µM), the TD90 (MRC-5 cells) was 380 µg/mL and the MIC (E. coli ATCC 25922 [2]; Escherichia coli, ATCC25922) was greater than 100 µg/mL. The MIC (MDRSA 12.1; [9]) was 4 µg/mL (≈ 11.9 µM), the MIC (ESBL E. coli [3]; [10]) was greater than 100 µg/mL and the MBC/MIC (MRSA ATCC 43300) was 1. The MBC (MRSA ATCC 43300; [8]) was 5 µg/mL (≈ 14.9 µM), the MIC (MRSA ATCC 43300; [9]) was 5 µg/mL (≈ 14.9 µM) and the MIC (MDRSA 11.7; [9]) was 4 µg/mL (≈ 11.9 µM).

Source: PMC7235863, “Benzamide Derivatives Targeting the Cell Division Protein FtsZ: Modifications of the Linker and the Benzodioxane Scaffold and Their Effects on Antimicrobial Activity” (Antibiotics, 2020)
